Laboratory results published in US10364263B2, “Cyclic phosphates and cyclic phosphoramidates for the treatment of neurologic disorders” (Retrophin, Inc., priority 2015, dated 2019).

What was measured:
[1] = tested on: PANK2 silenced human neuroblastoma IMR32 cells (PANK2−/−); assay: Coenzyme A assay in PANK2 silenced cells (LC-MS quantification of free CoA); type: cell-based; settings: compound added twice (24 h + 24 h), relative to 0.1% DMSO controls
Method in brief: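 Free intracellular CoA was measured by positive-mode LC-MS/MS of 20% TFA extracts, taking 2 μl per 10^6 cells as intracellular volume. Cells were IMR32 with stable lentiviral PANK2 knockdown, dosed twice 24 h apart (48 h total, 0.1% DMSO). Output is fold increase over vehicle.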

[2] = Stability in human hepatocytes; type: in vitro ADME
Description: (§1) Stability in hepatocytes for select compounds disclosed in the application was evaluated in two species (mouse and human) according to the following procedure. Compounds and positive control samples were dissolved in 100% DMSO at 5 mM. Cryopreserved hepatocytes were thawed and resuspended in Hepatocyte Basal Medium (HBM-Lonza CC-3199) supplemented with CC-4182 (complete hepatocyte culture medium). Test compounds were diluted into cell suspension (1 million cells/ml) from the stock solutions to have a test compound concentration of 5 μM (0.1% DMSO). Incubation was performed in 24-well plates, at 37° C. in a DUBNOFF water bath, under low shaking. Each compound was tested at 6 time points, in duplicates (0, 15, 30, 60, 120 and 240 min). At each time point, an aliquot of 120 μl was taken and transferred to a 96-well deep plate. The reaction was stopped with the addition of one volume of 100% acetonitrile plus 0.1% formic acid and the appropriate internal standard. Then samples were centrifuged at 1100×g for 30 min at +4° C. and supernatants were transferred to a new 96-deepwell plate. Samples were evaporated under N2 and reconstituted in H2O/ACN 0.1% Formic Acid (98:2). Analysis was performed without a calibration curve (Acquity UPLC-Waters; Sciex API4000). Time 0 was obtained adding acetonitrile before addition of the test compound. […] The half-life (t1/2) expressed in hours is derived using Equation 1 as shown in Example 64.

[3] = Stability in mouse hepatocytes; type: in vitro ADME; settings: t1/2, Mouse Hepatocytes
Description: as §1

[4] = Stability in human plasma; type: in vitro ADME; settings: 37° C.; for t1/2, Human Plasma, Diastereoisomer B: 3 μM
Method in brief: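 Test compound at 3 μM (0.1% DMSO) was incubated in mouse or human plasma at 37 °C and sampled in duplicate at 0, 10, 20, 30, 40 and 60 min. Reactions were stopped with acetonitrile/formic acid containing internal standard. Remaining parent was measured by UPLC-MS/MS without a calibration curve.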

[5] = Stability in mouse plasma; type: in vitro ADME
Description: Compounds and positive control samples were dissolved in 100% DMSO at 3 mM. To investigate the stability of the test compounds in plasma, samples were made by diluting test compounds into plasma from the stock solutions to obtain a test compound concentration of 3 μM (0.1% DMSO). Before addition of a test compound, 990 μl of plasma were preincubated at 37° C. for 5 min in eppendorf. After addition of a test compound, 70 μl for each time point were transferred to a 96-deepwell plate, previously warmed at 37° C. in a DUBNOFF water bath. Each compound was tested at five time points, in duplicate (10, 20, 30, 40 and 60 min). At each time point, an aliquot of 50 μl was taken and transferred to a new 96-deepwell plate, and the reaction was stopped with 200 μl of 100% acetonitrile containing 0.1% formic acid and the appropriate internal standard. Then samples were centrifuged at 1100×g for 30 min at +4° C. and supernatants were transferred to a new 96-deepwell plate. Samples were evaporated under N2 and reconstituted in H2O/ACN 0.1% Formic Acid (98:2). Analysis was performed without a calibration curve (Acquity UPLC-Waters; SciexAPI4000). Time 0 was obtained by adding acetonitrile before addition of the test compound.

[6] = t1/2, Human Hepatocytes, Diastereoisomer A
[7] = human, plasma, Diastereoisomer A (upfield shift in 31P NMR), read-out: t1/2, Human Plasma, Diastereoisomer A (converted)
[8] = t1/2, Human Hepatocytes, Diastereoisomer B
[9] = Diastereoisomer A (upfield shift in 31P NMR), 5 μM, 1 million cells/ml, 37° C., human hepatocytes, read-out: t1/2, Human Hepatocytes, Diastereoisomer A (converted)
[10] = Diastereoisomer A (upfield shift in 31P NMR), read-out: t1/2, Human Plasma, Diastereoisomer A (converted)
[11] = Diastereoisomer A (upfield shift in 31P NMR), 3 μM, 37° C., mouse plasma, read-out: t1/2, Mouse Plasma, Diastereoisomer A
[12] = Diastereoisomer B, 3 μM, 37° C., mouse plasma

| SMILES | half-life at 5 µM [2, 6] | half-life at 5 µM ([3]; Diastereoisomer A) | half-life at 5 µM [2, 8] | PANK2−/− CoA (Fold Increase): fold increase in Coenzyme A (CoA) levels relative to controls [1] | also measured |
| --- | --- | --- | --- | --- | --- |
| CC(C)(C)C(=O)OCO[P@@]1(=O)OCC(C)(C)[C@H](C(=O)NCCC(=O)OCCS(C)(=O)=O)O1 (single isomer, unassigned) [Compound No. 78] | 26.4 min | < 15 min | 19.8 min | 120.6 Fold Increase | half-life at 3 µM [4, 7]: > 60 min; half-life at 3 µM ([4]; human, plasma, Diastereoisomer B, read-out: t1/2, Human Plasma, Diastereoisomer B (converted)): < 9.6 min; half-life at 3 µM ([5]; mouse, plasma): < 9.6 min; t1/2, Mouse Plasma, Diastereoisomer B ([5]; mouse, plasma, 3 µM): <9.6 min; half-life at 5 µM ([3]; Diastereoisomer B): < 15 min |
| COC(=O)CCNC(=O)[C@@H]1O[P@](=O)(OCOC(=O)C(C)(C)C)OCC1(C)C (single isomer, unassigned) [Compound No. 89] | < 15 min | < 15 min |  | 154.1 Fold Increase | half-life at 3 µM [4, 7]: < 9.6 min; half-life at 3 µM ([5]; mouse, plasma): < 9.6 min |
| COC(=O)CCNC(=O)[C@@H]1O[P@@](=O)(OCOC(=O)C(C)(C)C)OCC1(C)C (single isomer, unassigned) [Compound No. 90] | < 15 min | < 15 min |  | 286.0 Fold Increase | half-life at 3 µM [4, 7]: 45.6 min; half-life at 3 µM ([5]; mouse, plasma): < 9.6 min |
| COC(=O)CCNC(=O)[C@@H]1OP(=O)(Oc2ccc(F)cc2)OCC1(C)C (stereo partly drawn) [2-118, methyl 3-((4R)-2-(4-fluorophenoxy)-5,5-dimethyl-2-oxido-1,3,2-dioxaphosphinane-4-carboxamido)propanoate] |  |  |  | 1.38 Fold Increase | half-life at 5 µM [2, 9]: 33 min; half-life at 5 µM ([2]; Diastereoisomer B, 5 μM, 1 million cells/ml, 37° C., human hepatocytes, read-out: t1/2, Human Hepatocytes, Diastereoisomer B (converted)): 36 min |
| COC(=O)CCNC(=O)[C@@H]1O[P@@](=O)(Oc2ccc(C(F)(F)F)cc2)OCC1(C)C [2-119, methyl 3-((2S,4R)-5,5-dimethyl-2-oxido-2-(4-(trifluoromethyl)phenoxy)-1,3,2-dioxaphosphinane-4-carboxamido)propanoate] |  |  |  | 1.67 Fold Increase | half-life at 5 µM [2, 9]: 30.6 min |
| COC(=O)CCNC(=O)[C@@H]1OP(=O)(OCOC(=O)c2scnc2C)OCC1(C)C (stereo partly drawn) [Compound No. 2-139, (((4R)-4-((3-methoxy-3-oxopropyl)carbamoyl)-5,5-dimethyl-2-oxido-1,3,2-dioxaphosphinan-2-yl)oxy)methyl 4-methylthiazole-5-carboxylate] | 30.6 min |  | 15.6 min | 44.21 Fold Increase |  |
| COC(=O)CCNC(=O)[C@@H]1OP(=O)(OCOC(=O)c2ccns2)OCC1(C)C (stereo partly drawn) [Compound No. 2-140, (((4R)-4-((3-methoxy-3-oxopropyl)carbamoyl)-5,5-dimethyl-2-oxido-1,3,2-dioxaphosphinan-2-yl)oxy)methyl isothiazole-5-carboxylate] | < 15 min |  | < 15 min | 37.02 Fold Increase |  |
| COC(=O)CCNC(=O)[C@@H]1OP(=O)(OCOC(C)=O)OCC1(C)C (stereo partly drawn) [Compound No. 68, Methyl 3-((4R)-2-(acetoxymethoxy)-5,5-dimethyl-2-oxido-1,3,2-dioxaphosphinane-4-carboxamido)propanoate] | < 15 min | < 15 min | < 15 min | 125.97 Fold Increase | half-life at 5 µM ([3]; Diastereoisomer B): < 15 min |
| COC(=O)[C@H](C)NP1(=O)OCC(C)(C)[C@H](C(=O)NCCC(=O)OCc2cc(C)on2)O1 (stereo partly drawn) [compound 21, (2S)-methyl 2-(((4R)-5,5-dimethyl-4-((3-((5-methylisoxazol-3-yl)methoxy)-3-oxopropyl)carbamoyl)-2-oxido-1,3,2-dioxaphosphinan-2-yl)amino)propanoate] | 70.8 min | < 15 min | 40.2 min |  | half-life at 5 µM ([3]; Diastereoisomer B): < 15 min |
| COC(=O)[C@H](C)N[P@@]1(=O)OCC(C)(C)[C@H](C(=O)NCCC(=O)OCc2cn(C)cn2)O1 [compound 22, methyl ((2R,4R)-5,5-dimethyl-4-((3-((1-methyl-1H-imidazol-4-yl)methoxy)-3-oxopropyl)carbamoyl)-2-oxido-1,3,2-dioxaphosphinan-2-yl)-L-alaninate] | > 240 min | 37.2 min |  |  |  |
| COC(=O)CCNC(=O)[C@@H]1OP(=O)(NCc2ccncc2)OCC1(C)C (stereo partly drawn) [compound 125, methyl 3-((4R)-5,5-dimethyl-2-oxido-2-((pyridin-4-ylmethyl)amino)-1,3,2-dioxaphosphinane-4-carboxamido)propanoate] |  |  |  | 1.99 Fold Increase | half-life at 3 µM [4, 10]: > 60 min; half-life at 3 µM [5, 11]: < 9.6 min |
| COC(=O)CCNC(=O)[C@@H]1OP(=O)(NCCN2CCOCC2)OCC1(C)C (stereo partly drawn) [compound 126, methyl 3-((4R)-5,5-dimethyl-2-((2-morpholinoethyl)amino)-2-oxido-1,3,2-dioxaphosphinane-4-carboxamido)propanoate] |  |  |  | 1.33 Fold Increase | half-life at 3 µM [4, 10]: > 60 min; t1/2, Human Plasma, Diastereoisomer B ([4]; Diastereoisomer B): >60 min; half-life at 3 µM [5, 11]: < 9.6 min; t1/2, Mouse Plasma, Diastereoisomer B [5, 12]: <9.6 min |
| COC(=O)CCNC(=O)[C@@H]1OP(=O)(NCCc2ccc(F)cc2)OCC1(C)C (stereo partly drawn) [compound 129, methyl 3-((4R)-2-((4-fluorophenethyl)amino)-5,5-dimethyl-2-oxido-1,3,2-dioxaphosphinane-4-carboxamido)propanoate] |  |  |  | 0.9 Fold Increase | half-life at 3 µM [4, 10]: > 60 min; t1/2, Human Plasma, Diastereoisomer B ([4]; Diastereoisomer B): >60 min; half-life at 3 µM [5, 11]: < 9.6 min; t1/2, Mouse Plasma, Diastereoisomer B [5, 12]: <9.6 min |

Continued, in another order:

| half-life at 5 µM [2, 6] | half-life at 5 µM ([3]; Diastereoisomer A) | half-life at 5 µM [2, 8] | SMILES | PANK2−/− CoA (Fold Increase): fold increase in Coenzyme A (CoA) levels relative to controls [1] | also measured |
| --- | --- | --- | --- | --- | --- |
| 36.6 min | < 15 min |  | COC(=O)CCNC(=O)[C@@H]1O[P@@](=O)(OCOC(=O)NCCOC(=O)[C@@H](NC(=O)OCc2ccccc2)C(C)C)OCC1(C)C (single isomer, unassigned) [2-160] | 7.99 Fold Increase |  |
| 25.8 min | < 15 min |  | COC(=O)CCNC(=O)[C@@H]1O[P@](=O)(OCOC(=O)NCCOC(=O)[C@@H](NC(=O)OCc2ccccc2)C(C)C)OCC1(C)C (single isomer, unassigned) [2-161] | 71.14 Fold Increase |  |
| 25.2 min |  | 19.2 min | COC(=O)CCNC(=O)[C@@H]1OP(=O)(OCOC(=O)NCCSC(=O)C(C)(C)C)OCC1(C)C (stereo partly drawn) [2-143, methyl 3-((4R)-5,5-dimethyl-2-oxido-2-((((2-(pivaloylthio)ethyl)carbamoyl)oxy)methoxy)-1,3,2-dioxaphosphinane-4-carboxamido)propanoate] | 1.39 Fold Increase |  |
